According to patent publication EP0364581A1, “METHOD OF STERILIZING PLANT POLLEN” (VSESOJUZNY NAUCHNO-ISSLEDOVATELSKY INST. SELSKOKHOZYAISTV. …, priority 1988, dated 1989):
Like-named read-outs stand apart in the source and are kept apart here.

Key:
Test in all cases: field test of gametocidal activity (sterilisation of anthers)
Format in all cases: in vivo
[1] = tested on: Winterweizen Mironovskaya 808; settings: treated in V. Periode der Organogenese, 2%ige wäßrige Emulsion, 20 kg/ha; for Prozentsatz des Ansetzens der Körner bei freier Bestäubung: control = 100
From the text: (§1) Die gametozide Aktivität der erfindungsgemäßen Sterilisationsmittel war in Feldversuch in verschiedenen bodenklimatischen Zonen mit Teilstücken von 10 m^2 Größe in drei-- bis viermaliger Wiederholung nachgewiesen. Jedes Sterilisationsmittel wurde mindestens 5 Jahre lang geprüft.
(§2) Die Entwicklung der Perioden der Organogenese wird zytologisch überwacht. Die Behandlung von Pflanzen mit dem Sterilisationsmittel erfolgt am Anfang der fünften Periode der Organogenese nach Kupermann.
(§3) Mit dem Ahrenschieben verwirklicht man die Isolierung von Hauptähren und anderen Stockwerken in Pergamentbeuteln. Bei Weizen und Tritikale werden Einzelisolatoren verwendet. Bei Roggen schließt man je 1 Ähre von 5 bis 7 verschiedenen nebeneinander befindlichen Pflanzen in einen gemeinsamen Isolator ein. Bei Hirse wird jede Rispe getrennt isoliert. Der Sterilitätsprozentsatz (X) für Weizen, Roggen, Tritikale und Hirse wird nach der Formel [formula]
(§4) Samen von unbehandelten Kontrollpflanzen ermittelt.
(§5) Die Kornzahl in nicht isolierten Ähren von Kontrollpflanzen wird bedingt für 100% Ansetzen bei freier Bestäubung angenommen.
(§6) Um zuverlässige Angaben zu erhalten, verwendet man 20 bis 25 Isolatoren jeder Wiederholung für Weizen und Tritikale, 10 bis 15 Isolatoren jeder Wiederholung für Roggen und Hirse.
Pflanzen des Winterweizens Sorte Mironovskaya 808 werden in der V. Periode der Organogenese durch Zerstäubung einer 2%igen wäßrigen Emulsion des Kaliumsalzes von 2-Methyl-3-zyklohexenkarbonsäure mit Hilfe einer Rückenspritze behandelt. Als Emulgiermittel setzt man 0,1 Masse% C12--C14 - Kalziumalkylbenzolsulfonat zu. Als Adjuvans führt man in die Emulsion 0,01 Masse% Dimethylformamid ein. Der Verbrauch an Präparat beträgt 20 kg/ha. Als Kontrolle dienen Pflanzen, behandelt mit einem Verdünner ohne Sterilisationsmittel. Die Ergebnisse sind in der Tabelle 1 angegeben. […] Periode der Organogenese erhalten.
Der Prozeß wird analog zu dem in Beispiel 1 beschriebenen durchgeführt. Als Sterilisationsmittel verwendet man eine 2%ige wäßrige Emulsion von 2-Methyl-3-zyklohexenkarbon- säuremethylester, Ammoniumsalz der 2-Methyl-[…], Phthalsäuredihexylester, Phthalsäuredibutylester, Phthalsäuredipropylester, Phthalsäurediisobutylester, Phthalsäurediäthylester. Die Ergebnisse sind in der Tabelle 1 angeführt. […]

[2] = tested on: tetraploidem Roggen Sorte Belta; settings: V. Periode, 1%ige wäßrige Emulsion, 6 kg/ha
From the text: as §1, §2, §3, §4, §5, §6
Pflanzen von tetraploidem Roggen Sorte Belta werden in der V. Periode der Organogenese (nach Kupermann) mit einer 1%igen wäßrigen Emulsion von Kaliumsalz der 2-Methyl-3-zy- klohexenkarbonsäure, 2-Methyl-3-zyklohexenkarbonsäuremethyl- ester, Phthalsäuredibutylester, Phthalsäuredihexylester, Phthalsäuredipropylester, Phthalsäurediallylester, Phthalsäurediisobutylester, Kaliumsalz der […] behandelt. Die Emulsion enthält 0,01 Masse% Dimethylsuloxid und 0,1 Masse% C12-C14-Kalziumalkylbenzolsulfonat. Der Verbrauch an Präparat beträgt 6 kg/ha. Als Kontrolle dienen Pflanzen behandelt mit einem Verdünner ohne Sterilisationsmittel.

[3] = tested on: Diploider Roggen Chulpan; settings: for response vs control in vivo at 8000 g/ha: read-out: Prozentsätz des Ansetzens der Körner bei freier Bestäubung; for percent sterility at 8000 g/ha / pest or weed control at 8000 g/ha: read-out: Prozentsatz der Sterilität
From the text: as §1, §2, §3, §4, §5, §6
Pflanzen von diploidem Roggen Sorte Chulpan werden in der V. Periode der Organogenese (nach Kupermann) mit einer 1%igen wäßrigen Emulsion von Kaliumsalz der 2-Methyl-3-zy- klohexenkarbonsäure, 2-Methyl-3-zyklohexenkarbonsäuremethyl- ester, Kaliumsalz der Salizylsäure, Phthalsäurediallylester, Phthalsäurediisobutylester, Phthalsäuredipropylester, Phthalsäuredihexylester, Phthalsäuredibutylester. Die Emulsion enthält 0,01 Masse% Tetrahydrofuran und 0,1 Masse% C12-C14--Kalziumalkylbenzolsulfonat. Der Verbrauch an Präparat beträgt 8 kg/ha. Als Kuntrolle dienen Pflanzen, behandelt mit einem Verdünner ohne Sterilisationsmittel. […]

[4] = tested on: Hirse Sorte Mironovskoe 94; settings: V. Periode, 1%ige wäßrige Emulsion, 10 kg/ha; for Prozentsatz des Ansetzens der Körner bei freier Bestäubung: control = 100
From the text: as §1, §2, §3, §4, §5, §6
Pflanzen der Hirse Sorte Mironovskoe 94 werden in der V. Periode der Organogenese (nach Kupermann) mit einer l%igen wäßrigen Emulsion von Kaliumsalz der 2-Methyl-3-zyklohexen- karbonsäure, 2-Methyl-3-zyklohexenkarbonsäuremethylester, Phthalsäuredihexylester, Phthalsäuredibutylester, Phthalsäuredipropylester, Natriumsalz der p-Hydroxybenzoesäure, Phthalsäurediäthylester, Phthalsäurediallylester behandelt. Die Emulsion enthält 0,01 Masse% Dimethylformamid und 0,1 Masse% C12-C14-Kalziumalkylbenzolsulfonat. Der Verbrauch an Präparat beträgt 10 kg/ha. Als Kontrolle dienen Pflanzen, behandelt mit einem Verdünner ohne Sterilisationsmittel. Die Prüfergebnisse sind in der Tabelle 17 angeführt. […] Periode der Organogenese erhalten.

[5] = Chulpan, V. Periode, 1%ige wäßrige Emulsion, 8 kg/ha
[6] = Chulpan, V. Periode, 1%ige wäßrige Emulsion, 8 kg/ha, control = 100

Structure (SMILES)	Kornzahl der Ähre bei freier Bestäubung [1]	Kornzahl der Ähre im Isolator [1]	Prozentsatz der Sterilität [1]	Prozentsatz des Ansetzens der Körner bei freier Bestäubung [1]	Kornzahl der Ähre bei freier Bestäubung [3, 5]	Kornzahl der Ähre im Isolator [3, 5]	Kornzahl der Rispe bei freier Bestäubung [4]	Kornzahl der Rispe im Isolator [4]	Prozentsatz der Sterilität [4]	Prozentsatz des Ansetzens der Körner bei freier Bestäubung [4]	other results
CC1C=CCCC1C(=O)[O-].[K+] (stereo not shown) [Beispiel 1, Kaliumsalzes von 2-Methyl-3-zyklohexenkarbonsäure]	38,6	3,2	91,5%	95,5%	–	–	–	–	–	–	–
COC(=O)C1CCC=CC1C (stereo not shown) [Beispiel 2, 2-Methyl-3-zyklohexenkarbon-säuremethylester]	30,1	0,0	100,0%	74,5%	–	–	–	–	–	–	–
CC1C=CCCC1C(=O)O.N (stereo not shown) [Beispiel 3, Ammoniumsalz der 2-Methyl-23-zyklohexen-karbonsäure]	39,2	0,6	98,4%	97,0%	–	–	–	–	–	–	–
CCCCCCOC(=O)c1ccccc1C(=O)OCCCCCC [Beispiel 4, Phthalsäuredihexylester]	38,2	4,2	88,9%	94,5%	–	–	–	–	–	–	–
CCCCOC(=O)c1ccccc1C(=O)OCCCC [Beispiel 5, Phthalsäuredibutylester]	31,7	0,0	100,0%	78,5%	–	–	–	–	–	–	–
CCCOC(=O)c1ccccc1C(=O)OCCC [Beispiel 6, Phthalsäuredipropylester]	39,0	5,0	86,8%	96,5%	–	–	–	–	–	–	–
CC(C)COC(=O)c1ccccc1C(=O)OCC(C)C [Beispiel 7, Phthalsäurediisobutylester]	37,7	0,2	99,5%	93,3%	–	–	–	–	–	–	–
CCOC(=O)c1ccccc1C(=O)OCC [Beispiel 8, Phthalsäurediäthylester]	39,8	0,5	98,7%	98,5%	–	–	–	–	–	–	–
CC1C=CCCC1C(=O)O (stereo not shown) [Beispiel 48, Kaliumsalz der 2-Methyl-3-zy-klohexenkarbonsäure]	–	–	–	–	–	–	–	–	–	–	Kornzahl der Ähre bei freier Bestäubung [2]: 45,6; Kornzahl der Ähre im Isolator [2]: 0,1; Prozentsatz der Sterilität [2]: 99,8%; Prozentsatz des Ansetzens bei freier Bestäubung ([2]; control = 100): 96,8%
CC1C=CCCC1C(=O)O (stereo not shown) [Beispiel 60, Kaliumsalz der 2-Methyl-3-zy-klohexenkarbonsäure]	–	–	–	–	55,2	0,0	–	–	–	–	response vs control in vivo at 8000 g/ha [3, 6]: 97.1%; percent sterility at 8000 g/ha [3, 5]: 100%
COC(=O)C1CCC=CC1C (stereo not shown) [Beispiel 61, 2-Methyl-3-zyklohexenkarbonsäuremethyl-ester]	–	–	–	–	51,0	0,0	–	–	–	–	response vs control in vivo at 8000 g/ha [3, 6]: 89.8%; percent sterility at 8000 g/ha [3, 5]: 100%
O=C(O)c1ccccc1O [Beispiel 62, Kaliumsalz der Salizylsäure]	–	–	–	–	50,4	10,4	–	–	–	–	pest or weed control at 8000 g/ha [3]: 79.7%; response vs control in vivo at 8000 g/ha [3]: 88.7%
C=CCOC(=O)c1ccccc1C(=O)OCC=C [Beispiel 63, Phthalsäurediallylester]	–	–	–	–	53,7	0,3	–	–	–	–	percent sterility at 8000 g/ha [3, 5]: 99.4%; response vs control in vivo at 8000 g/ha [3]: 94.5%
CC(C)COC(=O)c1ccccc1C(=O)OCC(C)C [Beispiel 64, Phthalsäurediisobutylester]	–	–	–	–	52,2	0,5	–	–	–	–	pest or weed control at 8000 g/ha [3]: 99%; response vs control in vivo at 8000 g/ha [3]: 91.9%
CCCOC(=O)c1ccccc1C(=O)OCCC [Beispiel 65, Phthalsäuredipropylester]	–	–	–	–	53,2	0,0	–	–	–	–	pest or weed control at 8000 g/ha [3]: 100%; response vs control in vivo at 8000 g/ha [3]: 93.6%
CCCCCCOC(=O)c1ccccc1C(=O)OCCCCCC [Beispiel 66, Phthalsäuredihexylester]	–	–	–	–	57,0	0,0	–	–	–	–	pest or weed control at 8000 g/ha [3]: 100%; response vs control in vivo at 8000 g/ha [3]: 100%
CCCCOC(=O)c1ccccc1C(=O)OCCCC [Beispiel 67, Phthalsäuredibutylester]	–	–	–	–	50,5	0,0	–	–	–	–	pest or weed control at 8000 g/ha [3]: 100%; response vs control in vivo at 8000 g/ha [3]: 88.9%
CC1C=CCCC1C(=O)[O-].[K+] (stereo not shown) [Beispiel 89, Kaliumsalz der 2-Methyl-3-zyklohexen-karbonsäure]	–	–	–	–	–	–	304,3	0,0	100,0%	80,2%	–
COC(=O)C1CCC=CC1C (stereo not shown) [Beispiel 90, 2-Methyl-3-zyklohexenkarbonsäuremethylester]	–	–	–	–	–	–	327,6	0,0	100,0%	86,3%	–
CCCCCCOC(=O)c1ccccc1C(=O)OCCCCCC [Beispiel 91, Phthalsäuredihexylester]	–	–	–	–	–	–	311,5	0,0	100,0%	82,1%	–
CCCCOC(=O)c1ccccc1C(=O)OCCCC [Beispiel 92, Phthalsäuredibutylester]	–	–	–	–	–	–	351,4	0,0	100,0%	92,6%	–
CCCOC(=O)c1ccccc1C(=O)OCCC [Beispiel 93, Phthalsäuredipropylester]	–	–	–	–	–	–	308,7	0,0	100,0%	81,3%	–
O=C([O-])c1ccc(O)cc1.[Na+] [Beispiel 94, Natriumsalz der p-Hydroxybenzoesäure]	–	–	–	–	–	–	400,7	0,0	100,0%	105,6%	–
CCOC(=O)c1ccccc1C(=O)OCC [Beispiel 95, Phthalsäurediäthylester]	–	–	–	–	–	–	352,5	0,0	100,0%	92,6%	–
C=CCOC(=O)c1ccccc1C(=O)OCC=C [Beispiel 96, Phthalsäurediallylester]	–	–	–	–	–	–	335,2	0,0	100,0%	88,3%	–
